Assay results as given in ChEMBL document CHEMBL2069200, “Synthesis and evaluation of 4-(substituted styryl/alkenyl)-3,5-bis(4-hydroxyphenyl)-isoxazoles as ligands for the estrogen receptor” (Bioorg Med Chem Lett, 2012).

target: T1, Estrogen receptor (Homo sapiens) (UniProt P03372); assay: Displacement of [3H]-estradiol from human ERalpha LBD expressed in Escherichia coli assessed as relative binding affinity relative to estradiol
T1 sequence (whole entry): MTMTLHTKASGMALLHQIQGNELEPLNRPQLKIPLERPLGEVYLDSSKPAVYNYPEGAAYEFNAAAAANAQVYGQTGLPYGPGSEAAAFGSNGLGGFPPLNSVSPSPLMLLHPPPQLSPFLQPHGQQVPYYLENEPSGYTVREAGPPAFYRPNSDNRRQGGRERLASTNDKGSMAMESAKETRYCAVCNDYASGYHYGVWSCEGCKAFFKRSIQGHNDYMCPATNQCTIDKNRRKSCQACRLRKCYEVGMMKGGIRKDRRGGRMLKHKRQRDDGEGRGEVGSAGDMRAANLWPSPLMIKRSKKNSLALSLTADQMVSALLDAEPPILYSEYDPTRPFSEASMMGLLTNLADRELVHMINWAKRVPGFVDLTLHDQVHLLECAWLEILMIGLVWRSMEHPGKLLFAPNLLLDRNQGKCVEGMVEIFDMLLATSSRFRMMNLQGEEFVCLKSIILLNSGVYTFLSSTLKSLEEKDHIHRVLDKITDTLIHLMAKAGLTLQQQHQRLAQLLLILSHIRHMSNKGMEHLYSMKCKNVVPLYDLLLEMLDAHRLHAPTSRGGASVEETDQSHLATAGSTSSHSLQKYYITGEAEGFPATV

Going from CCc1c(-c2ccc(O)cc2)nn(-c2ccc(O)cc2)c1-c1ccc(O)cc1 to Oc1ccc(-c2noc(-c3ccc(O)cc3)c2-c2ccc(O)cc2)cc1, the RBA falls from 36% to 30%.

Compared with CCCCCC/C=C/c1c(-c2ccc(O)cc2)noc1-c1ccc(O)cc1, CCCCCCC/C=C/c1c(-c2ccc(O)cc2)noc1-c1ccc(O)cc1 is lower in RBA: 2.5% for the first, 1.3% for the second.

First: Oc1ccc(-c2noc(-c3ccc(O)cc3)c2/C=C/c2ccc(C(F)(F)F)cc2)cc1
Second: Oc1ccc(-c2noc(-c3ccc(O)cc3)c2/C=C/c2cccc(C(F)(F)F)c2)cc1
The RBA of the first is higher: 5.3% for the first, 1.5% for the second.

Compared with Oc1ccc(-c2noc(-c3ccc(O)cc3)c2/C=C/c2ccc(F)cc2)cc1, Oc1ccc(/C=C/c2c(-c3ccc(O)cc3)noc2-c2ccc(O)cc2)cc1 is higher in RBA: 3.1% for the first, 16.4% for the second.

First: Oc1ccc(-c2noc(-c3ccc(O)cc3)c2/C=C\c2ccccc2)cc1
Second: Oc1ccc(-c2noc(-c3ccc(O)cc3)c2/C=C/c2ccccc2)cc1
The RBA of the first is higher: 8.7% for the first, 3.5% for the second.

Going from CC(C)(C)/C=C/c1c(-c2ccc(O)cc2)noc1-c1ccc(O)cc1 to CCCCC/C=C/c1c(-c2ccc(O)cc2)noc1-c1ccc(O)cc1, the RBA falls from 4.3% to 1.8%.

Going from Oc1ccc(-c2noc(-c3ccc(O)cc3)c2/C=C/c2ccc(Cl)cc2)cc1 to Cc1ccc(/C=C/c2c(-c3ccc(O)cc3)noc2-c2ccc(O)cc2)cc1, the RBA falls from 0.8% to 0.6%.

For Oc1ccc(-c2noc(-c3ccc(O)cc3)c2/C=C/c2cccc(O)c2)cc1, the RBA was 8.7%.
